Experiments:
Interstitial collagenase = molecular target: T1, Interstitial collagenase (Homo sapiens, UniProt P03956); experiment: Inhibition of MMP-1 (unknown origin)
T1 sequence (P03956 whole entry): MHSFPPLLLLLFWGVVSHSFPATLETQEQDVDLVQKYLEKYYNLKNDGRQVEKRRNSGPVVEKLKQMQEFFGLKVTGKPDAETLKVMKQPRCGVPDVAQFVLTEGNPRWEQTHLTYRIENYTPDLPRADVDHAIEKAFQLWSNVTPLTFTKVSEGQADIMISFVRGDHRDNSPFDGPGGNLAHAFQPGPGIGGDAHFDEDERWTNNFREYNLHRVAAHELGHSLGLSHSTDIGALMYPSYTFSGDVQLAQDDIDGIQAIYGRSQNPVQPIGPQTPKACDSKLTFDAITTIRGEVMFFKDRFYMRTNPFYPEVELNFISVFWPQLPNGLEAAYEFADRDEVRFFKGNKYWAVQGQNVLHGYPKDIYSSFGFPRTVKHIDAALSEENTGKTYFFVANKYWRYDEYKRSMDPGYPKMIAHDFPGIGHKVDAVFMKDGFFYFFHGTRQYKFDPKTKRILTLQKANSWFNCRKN

Stromelysin-1 = Stromelysin-1 (Homo sapiens, UniProt P08254); experiment: Inhibition of MMP-3 (unknown origin)
Chain of Stromelysin-1 (P08254 whole entry): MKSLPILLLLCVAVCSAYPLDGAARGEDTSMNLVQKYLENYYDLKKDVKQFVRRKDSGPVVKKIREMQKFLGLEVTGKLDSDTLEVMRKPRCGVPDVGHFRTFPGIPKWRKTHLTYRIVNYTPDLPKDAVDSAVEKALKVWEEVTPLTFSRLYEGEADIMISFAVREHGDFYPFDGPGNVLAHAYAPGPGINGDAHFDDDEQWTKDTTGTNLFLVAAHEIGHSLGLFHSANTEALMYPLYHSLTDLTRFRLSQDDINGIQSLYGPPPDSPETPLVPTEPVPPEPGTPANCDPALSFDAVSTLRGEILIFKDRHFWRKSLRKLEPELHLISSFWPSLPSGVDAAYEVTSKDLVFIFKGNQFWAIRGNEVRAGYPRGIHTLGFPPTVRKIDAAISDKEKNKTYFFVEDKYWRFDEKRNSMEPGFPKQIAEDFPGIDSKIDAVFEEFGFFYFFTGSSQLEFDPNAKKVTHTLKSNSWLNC

Matrilysin = molecular target: T2, Matrilysin (Homo sapiens, UniProt P09237); experiment: Inhibition of MMP-7 (unknown origin)
T2 sequence (P09237 whole entry): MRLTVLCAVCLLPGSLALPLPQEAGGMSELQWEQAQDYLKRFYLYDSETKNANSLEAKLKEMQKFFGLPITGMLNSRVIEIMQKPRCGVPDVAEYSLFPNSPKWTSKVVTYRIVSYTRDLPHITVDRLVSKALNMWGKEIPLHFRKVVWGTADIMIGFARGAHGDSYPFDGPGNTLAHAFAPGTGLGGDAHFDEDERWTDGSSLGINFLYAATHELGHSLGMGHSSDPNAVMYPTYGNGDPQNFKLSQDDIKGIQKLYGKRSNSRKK

Neutrophil collagenase = Neutrophil collagenase (Homo sapiens, UniProt P22894); experiment: Inhibition of MMP-8 (unknown origin)
Chain of Neutrophil collagenase (P22894 whole entry): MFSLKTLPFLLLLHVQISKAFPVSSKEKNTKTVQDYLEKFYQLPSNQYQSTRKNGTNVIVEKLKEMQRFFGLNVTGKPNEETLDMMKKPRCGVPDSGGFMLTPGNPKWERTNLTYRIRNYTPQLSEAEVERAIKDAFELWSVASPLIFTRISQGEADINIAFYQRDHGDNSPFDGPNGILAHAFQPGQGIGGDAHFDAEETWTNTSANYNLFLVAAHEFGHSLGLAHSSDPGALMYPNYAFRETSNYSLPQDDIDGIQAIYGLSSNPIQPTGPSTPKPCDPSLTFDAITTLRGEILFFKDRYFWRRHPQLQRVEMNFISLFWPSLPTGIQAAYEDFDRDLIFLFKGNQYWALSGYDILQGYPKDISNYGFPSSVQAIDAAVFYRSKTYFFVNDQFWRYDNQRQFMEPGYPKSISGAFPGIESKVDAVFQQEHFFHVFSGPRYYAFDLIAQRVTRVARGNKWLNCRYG

[1] = molecular target: T3, Macrophage metalloelastase (Homo sapiens, UniProt P39900); experiment: Inhibition of MMP-12 (unknown origin)
T3 sequence (P39900 whole entry): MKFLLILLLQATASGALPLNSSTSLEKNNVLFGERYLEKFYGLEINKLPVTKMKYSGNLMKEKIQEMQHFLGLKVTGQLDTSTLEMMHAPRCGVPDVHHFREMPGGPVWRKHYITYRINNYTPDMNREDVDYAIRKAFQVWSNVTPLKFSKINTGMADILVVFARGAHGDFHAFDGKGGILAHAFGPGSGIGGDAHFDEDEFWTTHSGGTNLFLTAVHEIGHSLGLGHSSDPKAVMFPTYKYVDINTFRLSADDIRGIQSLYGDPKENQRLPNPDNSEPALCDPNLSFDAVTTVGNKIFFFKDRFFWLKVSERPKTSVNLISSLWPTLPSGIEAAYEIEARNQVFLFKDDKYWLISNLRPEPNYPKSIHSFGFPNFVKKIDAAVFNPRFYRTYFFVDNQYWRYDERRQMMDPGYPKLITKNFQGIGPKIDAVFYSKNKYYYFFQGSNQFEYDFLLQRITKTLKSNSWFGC

Collagenase 3 [2] = molecular target: T4, Collagenase 3 (Homo sapiens, UniProt P45452)
Description: Inhibition of MMP-13 (unknown origin)

[3] = molecular target: Matrix metalloproteinase-14 (Homo sapiens, UniProt P50281); experiment: Inhibition of MMP-14 (unknown origin)
[4] = molecular target: T5, 72 kDa type IV collagenase (Homo sapiens, UniProt P08253); experiment: Inhibition of MMP-2 (unknown origin) catalytic activity using Ac-PLG-[2-mercapto-4-methylpentanoyl]-LG-OC2H5 as substrate and measured upto 30 mins by microplate reader analysis
T5 sequence (P08253 whole entry): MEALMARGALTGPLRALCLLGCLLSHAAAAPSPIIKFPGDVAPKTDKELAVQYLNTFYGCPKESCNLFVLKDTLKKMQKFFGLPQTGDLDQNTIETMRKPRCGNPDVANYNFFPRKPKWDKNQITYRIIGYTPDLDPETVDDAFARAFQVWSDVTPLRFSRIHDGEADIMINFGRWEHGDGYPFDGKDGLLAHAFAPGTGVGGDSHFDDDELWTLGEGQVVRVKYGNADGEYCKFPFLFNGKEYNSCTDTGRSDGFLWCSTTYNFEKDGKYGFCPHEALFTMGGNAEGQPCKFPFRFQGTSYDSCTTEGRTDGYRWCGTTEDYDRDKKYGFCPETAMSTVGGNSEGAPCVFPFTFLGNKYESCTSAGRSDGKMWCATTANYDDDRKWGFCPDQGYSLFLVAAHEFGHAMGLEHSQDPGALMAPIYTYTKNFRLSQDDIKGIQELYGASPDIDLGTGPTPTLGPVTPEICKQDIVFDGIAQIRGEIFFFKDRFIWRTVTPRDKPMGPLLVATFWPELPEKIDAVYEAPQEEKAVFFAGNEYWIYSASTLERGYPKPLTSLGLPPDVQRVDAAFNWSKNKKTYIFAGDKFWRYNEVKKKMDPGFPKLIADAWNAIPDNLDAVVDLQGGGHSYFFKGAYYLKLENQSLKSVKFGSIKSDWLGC

[5] = molecular target: T6, Matrix metalloproteinase-9 (Homo sapiens, UniProt P14780); experiment: Inhibition of MMP-9 (unknown origin) catalytic activity using Ac-PLG-[2-mercapto-4-methylpentanoyl]-LG-OC2H5 as substrate and measured upto 30 mins by microplate reader analysis
T6 sequence (P14780 whole entry): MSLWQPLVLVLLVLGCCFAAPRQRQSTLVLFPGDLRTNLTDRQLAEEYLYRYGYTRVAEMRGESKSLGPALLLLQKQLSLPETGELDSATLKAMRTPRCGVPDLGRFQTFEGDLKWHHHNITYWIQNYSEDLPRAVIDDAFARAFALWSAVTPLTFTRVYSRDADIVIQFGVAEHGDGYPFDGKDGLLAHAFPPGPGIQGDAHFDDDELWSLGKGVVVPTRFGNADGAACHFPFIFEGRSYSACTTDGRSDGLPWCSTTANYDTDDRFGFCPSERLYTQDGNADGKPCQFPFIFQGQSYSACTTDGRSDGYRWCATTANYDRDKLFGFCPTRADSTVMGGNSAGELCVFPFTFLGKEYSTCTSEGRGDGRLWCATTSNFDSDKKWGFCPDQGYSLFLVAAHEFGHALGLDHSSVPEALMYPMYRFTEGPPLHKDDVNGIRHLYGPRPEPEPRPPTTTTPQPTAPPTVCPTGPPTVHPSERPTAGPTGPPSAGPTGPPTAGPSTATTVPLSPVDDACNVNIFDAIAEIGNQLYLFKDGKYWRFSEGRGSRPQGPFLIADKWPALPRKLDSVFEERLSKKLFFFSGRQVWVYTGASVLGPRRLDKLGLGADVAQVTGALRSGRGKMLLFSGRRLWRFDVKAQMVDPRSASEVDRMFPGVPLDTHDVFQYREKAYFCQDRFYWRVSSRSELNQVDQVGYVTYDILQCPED

Stromelysin-2 = Stromelysin-2 (Homo sapiens, UniProt P09238); experiment: Inhibition of MMP-10 (unknown origin)
Chain of Stromelysin-2 (P09238 whole entry): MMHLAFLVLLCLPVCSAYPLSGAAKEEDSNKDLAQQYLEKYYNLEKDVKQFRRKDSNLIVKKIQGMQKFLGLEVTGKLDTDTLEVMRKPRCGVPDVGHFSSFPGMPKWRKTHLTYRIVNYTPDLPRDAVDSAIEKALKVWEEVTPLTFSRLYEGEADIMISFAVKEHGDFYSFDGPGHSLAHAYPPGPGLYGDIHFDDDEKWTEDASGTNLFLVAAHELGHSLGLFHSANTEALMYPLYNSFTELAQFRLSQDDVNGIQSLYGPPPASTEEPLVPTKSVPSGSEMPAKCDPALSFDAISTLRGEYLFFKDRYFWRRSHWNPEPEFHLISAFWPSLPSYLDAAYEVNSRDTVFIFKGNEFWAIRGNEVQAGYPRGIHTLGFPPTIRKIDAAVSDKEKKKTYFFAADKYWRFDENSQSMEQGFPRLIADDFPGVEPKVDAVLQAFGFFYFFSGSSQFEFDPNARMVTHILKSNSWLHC

[6] = molecular target: T5, 72 kDa type IV collagenase; experiment: Inhibition of MMP-2 (unknown origin) using Mca-Pro-Leu-Gly-Leu-Dpa-Ala-Arg-NH2 as substrate by fluorimetric assay
[7] = molecular target: T6, Matrix metalloproteinase-9; experiment: Inhibition of MMP-9 (unknown origin) using Mca-Pro-Leu-Gly-Leu-Dpa-Ala-Arg-NH2 as substrate by fluorimetric assay
HT-1080 = experiment: Inhibition of cell invasion in human HT-1080 cells for 24 hrs by Calcein AM staining based fluorometric analysis; assay type: functional; conditions: HT-1080, 24 h
[8] = molecular target: T6, Matrix metalloproteinase-9; experiment: Inhibition of MMP-9 (unknown origin)
[9] = molecular target: T5, 72 kDa type IV collagenase
[10] = molecular target: T5, 72 kDa type IV collagenase; experiment: Inhibition of recombinant human MMP-2 using peptide substrate by ELISA
[11] = molecular target: T6, Matrix metalloproteinase-9; experiment: Inhibition of recombinant human MMP-9 using peptide substrate by ELISA
[12] = molecular target: T3, Macrophage metalloelastase; experiment: Inhibition of recombinant human MMP-12 using peptide substrate by ELISA
Collagenase 3 [13] = molecular target: T4, Collagenase 3; experiment: Inhibition of recombinant human MMP-13 using peptide substrate by ELISA
[14] = Inhibition of recombinant human TACE using peptide substrate by ELISA
[15] = Half life in Sprague-Dawley rats at 33 mg/kg, sc; assay type: ADME, organism-based; conditions: rat, in vivo
[16] = AUC in Sprague-Dawley rats at 33 mg/kg, sc; assay type: ADME, organism-based; parameters: dose 33 mg/kg, route sc; conditions: rat, in vivo
[17] = Half life in Sprague-Dawley rat at 33 mg/kg, po; assay type: ADME, organism-based; conditions: in vivo
[18] = AUC in Sprague-Dawley rats at 33 mg/kg, po; assay type: ADME, organism-based; parameters: dose 33 mg/kg, route po; conditions: rat, in vivo

COc1ccc(-c2ccc(CN3C(C(=O)NO)CCS3(=O)=O)cc2)cc1 (stereo unspecified)
Ki (Interstitial collagenase): 4950 nM

COc1ccc(-c2cn(-c3ccc(S(=O)(=O)C4(C(=O)NO)CCOCC4)cc3)nn2)cc1
IC50 (Interstitial collagenase): > 1000 nM
IC50 (Stromelysin-1): 9.6 nM
IC50 (Matrilysin): 70 nM
IC50 (Neutrophil collagenase): 6.1 nM
IC50 [1]: 1.2 nM
IC50 (Collagenase 3 [2]): 1.4 nM
IC50 [3]: 8.2 nM
IC50 [4]: 0.3 nM
IC50 [5]: 11.3 nM
IC50 (Stromelysin-2): 7.8 nM

O=C(NCCCCC(NS(=O)(=O)c1ccc(-c2ccc(Cl)cc2)cc1)C(=O)O)OCc1ccccc1 (stereo unspecified)
IC50 [6]: 5 nM
IC50 [7]: 800 nM

COc1ccccc1Nc1nc(-c2sc(NC(C)=O)nc2C)cs1
IC50 (HT-1080): 1000 nM

CN(C)c1ccc(O)c2c1C[C@H]1C[C@H]3[C@H](N(C)C)C(O)=C(C(N)=O)C(=O)[C@@]3(O)C(O)=C1C2=O [MINOCYCLINE]
IC50 (Stromelysin-1): 290000 nM
IC50 (Matrilysin): 125000 nM
IC50 [8]: 180000 nM

O=C(CCC(NS(=O)(=O)c1ccc(-c2ccccc2)cc1)C(=O)O)NCc1ccccc1 (stereo unspecified)
IC50 [8]: 0.704 nM

CC(C)ON([C@@H](CCNC(=O)OCc1ccccc1)C(=O)NO)S(=O)(=O)c1ccc(-c2ccccc2)cc1
IC50 (Interstitial collagenase): > 3000 nM
IC50 [9]: 0.41 nM
IC50 (Stromelysin-1): 130 nM
IC50 (Matrilysin): 10000 nM
IC50 [8]: 16 nM
IC50 [3]: 7.7 nM

C[C@H]1c2cccc(O)c2C(=O)C2=C(O)[C@]3(O)C(=O)C(C(N)=O)=C(O)[C@@H](N(C)C)[C@@H]3[C@@H](O)[C@@H]21 [DOXYCYCLINE]
IC50 (Interstitial collagenase): > 400000 nM
IC50 [9]: 56000 nM
IC50 (Stromelysin-1): 32000 nM
IC50 (Matrilysin): 28000 nM
IC50 (Neutrophil collagenase): 26000 nM
IC50 (Collagenase 3 [2]): 20000 nM
IC50 (HT-1080): 21400 nM

CN1C(=O)N(C[C@H](C(=O)NO)[C@H](CC2CCCC2)C(=O)N2CCCCC2)C(=O)C1(C)C
Ki (Neutrophil collagenase): 4 nM

CC(=O)Nc1ccc(Oc2ccc(S(=O)(=O)CC3CS3)cc2)cc1 (stereo unspecified)
Ki (Interstitial collagenase): > 154000 nM
Ki (Stromelysin-1): > 188000 nM
Ki [3]: > 230000 nM

O=C(NO)C(Cc1ccccc1)NS(=O)(=O)c1ccc(-c2cn(-c3ccc(-c4ccccc4)cc3)nn2)cc1 (stereo unspecified)
IC50 (Interstitial collagenase): > 10000 nM
IC50 (Stromelysin-1): 50 nM
IC50 (Matrilysin): > 500 nM
IC50 (Neutrophil collagenase): > 500 nM
IC50 [1]: 3.8 nM
IC50 (Collagenase 3 [2]): < 5 nM
IC50 [3]: 556 nM
IC50 [4]: 1.3 nM
IC50 [5]: 5.54 nM
IC50 (Stromelysin-2): 181 nM

C=CC[C@H](C(=O)NO)C(CC(C)C)C(=O)N[C@@H](Cc1ccccc1)C(=O)NC (stereo partly specified)
IC50 (Interstitial collagenase): 10 nM
Ki (Interstitial collagenase): 8 nM
IC50 [9]: 5 nM
Ki [9]: 4 nM
IC50 (Stromelysin-1): 30 nM
Ki (Stromelysin-1): 30 nM
IC50 (Matrilysin): 30 nM
Ki (Matrilysin): 60 nM
IC50 (Neutrophil collagenase): 3 nM
Ki (Neutrophil collagenase): 3 nM
IC50 [8]: 3 nM
Ki [8]: 3 nM
Ki [1]: 5 nM
Ki (Collagenase 3 [2]): 7 nM
Ki [3]: 10 nM

O=C(NCCCCCNS(=O)(=O)c1ccc(Oc2ccccc2)cc1)P(=O)(O)O
IC50 [10]: 4 nM
IC50 [11]: > 100 nM
IC50 [12]: > 80 nM
IC50 (Collagenase 3 [13]): > 60 nM
IC50 [14]: > 100 nM
half-life [15]: 9.3 h
AUC [16]: 78000 ng·h/mL
half-life [17]: 10.5 h
AUC [18]: 6800 ng·h/mL

O=C(O)CS(=O)(=O)c1ccc(-c2ccccc2)cc1
IC50 (Interstitial collagenase): 380000 nM
IC50 [9]: 12500 nM
IC50 (Stromelysin-1): 364000 nM
IC50 (Matrilysin): 14200 nM
IC50 [8]: 212000 nM
IC50 (Collagenase 3 [2]): 101000 nM
IC50 [3]: 165 nM
